Assay results: patent US9598460B2 (UNIVERSITY OF NOTRE DAME DU LAC, priority 2011, dated 2017)
pKd: −log10 of the molar value.

Experiments:
[1] = molecular target: nucleotide binding site of mouse anti-FITC antibody; assay: Sandwich ELISA binding of biotin-linked indole-3-butyric acid to antigen-captured antibody; details: fit of normalized fluorescent intensity, read-out: Kd (binding affinity)
Excerpt: (§1) FIG. 2B illustrates a sandwich ELISA, in accordance with various embodiments;
(§2) HRP-streptavidin was used to bind the biotin, and a fluorescent substrate was used to quantify the amount of indole-3-butyric acid that was present on the surface.

[2] = molecular target: nucleotide binding site of chimeric human/mouse Rituximab; assay: as above; details: fit of normalized fluorescent intensity, read-out: Kd (binding affinity)
Excerpt: as §1, §2

[3] = molecular target: nucleotide binding site of rat anti-DNP antibody; assay: as above; details: fit of normalized fluorescent intensity, read-out: Kd (binding affinity)
Excerpt: as §1, §2

[4] = molecular target: nucleotide binding site of three different antibodies; assay: Sandwich ELISA, summary over three antibodies
Protocol: as §1, §2
Thus, the monovalent Kd values for the indole binding to the nucleotide binding site of three different antibodies ranged between 1-7 μM, showing a 7- to 50-fold enhancement in binding affinity over adenine.

O=C(O)CCCc1c[nH]c2ccccc12 [indole-3-butyric acid]
pKd [1]: 5.19 | pKd [2]: 5.77 | pKd [3]: 5.90 | pKd ([4]; range over three different antibodies, read-out: monovalent Kd values): 5.15 to 6.00 | enhancement in binding affinity over adenine ([4]; relative to adenine): 7- to 50 fold
